In US20150183802A1, “TRICYCLIC SULFONAMIDE DERIVATIVES” (NOVARTIS AG, priority 2013, published 2015):

Molecular target: T1, hNav1.7 channels (Homo sapiens, UniProt Q15858)
T1 construct: host or cells: HEK293
Test: hNav1.7 channel in vitro patch-clamp assay
Format: cell-based
Conditions: stable HEK293 cell line expressing hNav1.7; whole cell patch-clamp (QPatch HTX and/or conventional), room temperature; voltage protocol not given
Procedure: hNav1.7 Channel In Vitro Patch-Clamp Assay
Cells: Sable HEK293 (human embryonic kidney) cell line expressing hNav1.7 channels was used in the assay. The cell line was obtained from Millipore (Millipore Corporation, MA).
Patch-clamp recordings: The recordings were performed on QPatch HTX (Sophion Bioscience, Denmark) and/or conventional patch-clamp (Axon Multiclamp 700B systems, Molecular Devices, CA) platforms at room temperature, using whole cell patch-clamp techniques. The composition of extracellular solution was (in mM): HEPES 5, NaCl 40, KCl 3, CaCl2 1, MgCl2 1, Choline Chloride 100. Adjust pH to 7.2 with 1N NaOH, osmolarity to 300-310 mOsm with sucrose. The composition of intracellular solution was (in mM): HEPES 10, NaCl 10, Na2ATP 1, MgCl2 2, KF 135, EGTA 10. Adjust pH to 7.2 with 1N NaOH, osmolarity to 290-300 mOsm with sucrose.
For conventional patch-clamp, 35 mm culture dishes containing hNav1.7 cells were placed on the stage of an inverted microscope and continuously perfused with extracellular solution from a perfusion system (Biologic Rapid solution changer, RSC-160, ˜1 ml/min). […] The recordings were controlled by pCLAMP10 software. Test compounds were dissolved in 100% DMSO to make stock solutions for each test concentration, and then diluted into extracellular solution to achieve final concentration for testing. Final DMSO concentration was less than 0.3%. Two voltage protocols were used in hNav1.7 assay: for non-inactivated protocol, the sodium currents were elicited by a 2 ms pulse to −10 mV from a holding potential of −110 mV. For inactivated protocol, the holding potential was set at V1/2. The voltage was firstly stepped to −110 mV for 50 ms, then to −10 mV for 2 ms and then stepped back to holding potential. In both protocols the voltage command was given in every 10 s. Compound effect (% inhibition) was determined by difference in current amplitude before and after the application of test compounds. IC50 values were determined from concentration-response curves that were obtained with Hill fitting.
For QPatch HTX assay, hNav1.7 cells grown to 50%-80% confluence were rinsed with DPBS and dissociated with Tryple (Invitrogen, 12605-010). The dissociated cells were then mixed with extracellular solution. After centrifuge, the cells were resuspended in extracellular solution and used in the QPatch experiment. The whole-cell protocols, voltage protocols and application protocols were established with QPatch Assay Software 3.4 (Sophion Bioscience, Denmark). Only the inactivated protocol was used in the QPatch assay.

T1 sequence (Q15858 whole entry): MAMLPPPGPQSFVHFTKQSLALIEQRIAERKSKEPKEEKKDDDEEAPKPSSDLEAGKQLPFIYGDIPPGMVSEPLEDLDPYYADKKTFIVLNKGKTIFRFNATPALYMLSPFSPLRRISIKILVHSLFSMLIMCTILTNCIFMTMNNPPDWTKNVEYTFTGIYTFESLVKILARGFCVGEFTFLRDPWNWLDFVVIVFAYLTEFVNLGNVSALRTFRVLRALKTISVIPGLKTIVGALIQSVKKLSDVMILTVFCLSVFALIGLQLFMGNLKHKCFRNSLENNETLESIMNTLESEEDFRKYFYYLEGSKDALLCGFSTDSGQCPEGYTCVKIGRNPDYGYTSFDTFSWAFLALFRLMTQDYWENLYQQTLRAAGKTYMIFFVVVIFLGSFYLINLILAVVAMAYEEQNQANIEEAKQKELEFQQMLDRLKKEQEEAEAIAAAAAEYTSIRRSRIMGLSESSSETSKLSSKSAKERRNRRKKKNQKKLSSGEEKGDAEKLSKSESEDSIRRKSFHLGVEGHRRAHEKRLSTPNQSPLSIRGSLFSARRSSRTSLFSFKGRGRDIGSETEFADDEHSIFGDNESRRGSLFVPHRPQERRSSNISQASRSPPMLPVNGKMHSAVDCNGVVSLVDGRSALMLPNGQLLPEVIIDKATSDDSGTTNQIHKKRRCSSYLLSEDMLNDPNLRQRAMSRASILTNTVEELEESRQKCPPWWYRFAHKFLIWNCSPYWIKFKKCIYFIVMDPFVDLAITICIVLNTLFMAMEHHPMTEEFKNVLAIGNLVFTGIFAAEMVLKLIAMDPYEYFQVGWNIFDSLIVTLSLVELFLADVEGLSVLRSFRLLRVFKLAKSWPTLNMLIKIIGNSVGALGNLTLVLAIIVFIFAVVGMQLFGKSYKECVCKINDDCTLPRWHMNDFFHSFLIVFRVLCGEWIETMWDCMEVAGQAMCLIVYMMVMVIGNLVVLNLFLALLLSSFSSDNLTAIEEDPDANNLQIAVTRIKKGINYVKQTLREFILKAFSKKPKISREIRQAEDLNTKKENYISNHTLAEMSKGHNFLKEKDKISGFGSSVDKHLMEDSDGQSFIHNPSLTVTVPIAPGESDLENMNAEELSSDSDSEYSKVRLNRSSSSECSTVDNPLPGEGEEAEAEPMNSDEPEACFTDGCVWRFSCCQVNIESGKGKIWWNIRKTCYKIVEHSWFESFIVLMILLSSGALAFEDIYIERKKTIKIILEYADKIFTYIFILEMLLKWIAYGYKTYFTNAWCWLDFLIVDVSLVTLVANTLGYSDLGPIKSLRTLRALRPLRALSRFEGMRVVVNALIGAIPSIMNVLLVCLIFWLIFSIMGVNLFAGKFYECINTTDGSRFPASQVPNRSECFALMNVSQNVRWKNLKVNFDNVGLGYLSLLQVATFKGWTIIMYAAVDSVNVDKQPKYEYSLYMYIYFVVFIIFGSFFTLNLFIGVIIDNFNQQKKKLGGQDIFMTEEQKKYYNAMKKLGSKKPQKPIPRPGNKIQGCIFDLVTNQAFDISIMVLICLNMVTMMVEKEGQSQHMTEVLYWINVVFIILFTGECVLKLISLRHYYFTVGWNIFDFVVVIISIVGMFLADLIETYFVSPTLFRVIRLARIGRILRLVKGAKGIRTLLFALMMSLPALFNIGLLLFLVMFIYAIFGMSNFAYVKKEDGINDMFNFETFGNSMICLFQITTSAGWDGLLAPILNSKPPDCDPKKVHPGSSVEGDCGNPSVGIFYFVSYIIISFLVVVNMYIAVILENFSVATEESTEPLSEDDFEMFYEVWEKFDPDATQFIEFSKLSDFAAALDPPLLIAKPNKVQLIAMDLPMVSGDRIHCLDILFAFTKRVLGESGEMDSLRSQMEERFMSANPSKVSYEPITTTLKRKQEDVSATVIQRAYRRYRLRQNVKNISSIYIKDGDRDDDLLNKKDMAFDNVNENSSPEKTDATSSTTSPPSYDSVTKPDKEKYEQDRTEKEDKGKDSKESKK

Compound | IC50
CCC(C)Oc1ncc(N2C(=O)C3(CC3)c3cc4c(NS(=O)(=O)C5CC5)noc4cc32)cc1Cl (stereo not shown) [Example 24, N-(7′-(6-(sec-butoxy)-5-chloropyridin-3-yl)-6′-oxo-6′,7′-dihydrospiro[cyclopropane-1,5′-isoxazolo[4,5-f]indol]-3′-yl)cyclopropanesulfonamide] | 70 nM
O=C1N(c2cnc(OCC3CCC3)c(Cl)c2)c2cc3onc(NS(=O)(=O)C4CC4)c3cc2C12CC2 [Example 25, N-(7′-(5-chloro-6-(cyclobutylmethoxy)pyridin-3-yl)-6′-oxo-6′,7′-dihydrospiro[cyclopropane-1,5′-isoxazolo[4,5-f]indol]-3′-yl)cyclopropanesulfonamide] | 80 nM
O=C1N(c2cnc(OC3CCCCC3)c(Cl)c2)c2cc3onc(NS(=O)(=O)C4CC4)c3cc2C12CC2 [Example 26, N-(7′-(5-chloro-6-(cyclohexyloxy)pyridin-3-yl)-6′-oxo-6′,7′-dihydrospiro[cyclopropane-1,5′-isoxazolo[4,5-f]indol]-3′-yl)cyclopropanesulfonamide] | 110 nM
O=C1N(c2cnc(OCC3CCCC3)c(Cl)c2)c2cc3onc(NS(=O)(=O)C4CC4)c3cc2C12CC2 [Example 27, N-(7′-(5-chloro-6-(cyclopentylmethoxy)pyridin-3-yl)-6′-oxo-6′,7′-dihydrospiro[cyclopropane-1,5′-isoxazolo[4,5-f]indol]-3′-yl)cyclopropanesulfonamide] | 90 nM
O=C1N(c2cnc(OCC3CC3)c(Cl)c2)c2cc3onc(NS(=O)(=O)C4CC4)c3cc2C12CC2 [Example 28, N-(7′-(5-chloro-6-(cyclopropylmethoxy)pyridin-3-yl)-6′-oxo-6′,7′-dihydrospiro[cyclopropane-1,5′-isoxazolo[4,5-f]indol]-3′-yl)cyclopropanesulfonamide] | 200 nM
COc1ncc(N2C(=O)C3(CC3)c3cc4c(NS(=O)(=O)C5CC5)noc4cc32)cc1Cl [Example 29, N-(7′-(5-chloro-6-methoxypyridin-3-yl)-6′-oxo-6′,7′-dihydrospiro[cyclopropane-1,5′-isoxazolo[4,5-f]indol]-3′-yl)cyclopropanesulfonamide] | 800 nM
O=C1N(c2cnc(OC(F)F)c(Cl)c2)c2cc3onc(NS(=O)(=O)C4CC4)c3cc2C12CC2 [Example 30, N-(7′-(5-chloro-6-(difluoromethoxy)pyridin-3-yl)-6′-oxo-6′,7′-dihydrospiro[cyclopropane-1,5′-isoxazolo[4,5-f]indol]-3′-yl)cyclopropanesulfonamide] | 630 nM
CS(=O)(=O)Nc1noc2cc3c(cc12)C1(CC1)C(=O)N3c1ccc(Cl)c(Cl)c1 [Example 31, N-(7′-(3,4-dichlorophenyl)-6′-oxo-6′,7′-dihydrospiro[cyclopropane-1,5′-isoxazolo[4,5-f]indol]-3′-yl)methanesulfonamide] | 800 nM
CC(C)COc1c(Cl)cc(N2C(=O)C3(CC3)c3cc4c(NS(C)(=O)=O)noc4cc32)cc1C#N [Example 32, N-(7′-(3-chloro-5-cyano-4-isobutoxyphenyl)-6′-oxo-6′,7′-dihydrospiro[cyclopropane-1,5′-isoxazolo[4,5-f]indol]-3′-yl)methanesulfonamide] | 900 nM
CC(C)COc1c(F)cc(N2C(=O)C3(CC3)c3cc4c(NS(=O)(=O)C5CC5)noc4cc32)cc1Cl [Example 33, N-(7′-(3-chloro-5-fluoro-4-isobutoxyphenyl)-6′-oxo-6′,7′-dihydrospiro[cyclopropane-1,5′-isoxazolo[4,5-f]indol]-3′-yl)cyclopropanesulfonamide] | 100 nM
CC(C)COc1ncc(-n2c(=O)n(C)c3cc4c(NS(C)(=O)=O)noc4cc32)cc1Cl [Example 34, N-(7-(5-chloro-6-isobutoxypyridin-3-yl)-5-methyl-6-oxo-6,7-dihydro-5H-imidazo[4′,5′:4,5]benzo[1,2-d]isoxazol-3-yl)methanesulfonamide] | 100 nM
CC(C)COc1ncc(-n2c(=O)n(C)c3cc4c(NS(=O)(=O)C5CC5)noc4cc32)cc1Cl [Example 35, N-(7-(5-chloro-6-isobutoxypyridin-3-yl)-5-methyl-6-oxo-6,7-dihydro-5H-imidazo[4′,5′:4,5]benzo[1,2-d]isoxazol-3-yl)cyclopropanesulfonamide] | 100 nM
CC(C)COc1ncc(N2C(=O)C(C)(C)c3cc4c(NS(=O)(=O)C5CC5)noc4cc32)cc1Cl [Example 36, N-(7-(5-chloro-6-isobutoxypyridin-3-yl)-5,5-dimethyl-6-oxo-6,7-dihydro-5H-isoxazolo[4,5-f]indol-3-yl)cyclopropanesulfonamide] | 70 nM
CC(C)COc1ncc(N2C(=O)C3(CCC3)c3cc4c(NS(=O)(=O)C5CC5)noc4cc32)cc1Cl [Example 37, N-(7′-(5-chloro-6-isobutoxypyridin-3-yl)-6′-oxo-6′,7′-dihydrospiro[cyclobutane-1,5′-isoxazolo[4,5-f]indol]-3′-yl)cyclopropanesulfonamide] | 40 nM
CC(C)COc1ncc(N2C(=O)C3(CCCC3)c3cc4c(NS(=O)(=O)C5CC5)noc4cc32)cc1Cl [Example 38, N-(7′-(5-chloro-6-isobutoxypyridin-3-yl)-6′-oxo-6′,7′-dihydrospiro[cyclopentane-1,5′-isoxazolo[4,5-f]indol]-3′-yl)cyclopropanesulfonamide] | 500 nM
CC(C)COc1ncc(N2C(=O)C3(CCCCC3)c3cc4c(NS(=O)(=O)C5CC5)noc4cc32)cc1Cl [Example 39, N-(7′-(5-chloro-6-isobutoxypyridin-3-yl)-6′-oxo-6′,7′-dihydrospiro[cyclohexane-1,5′-isoxazolo[4,5-f]indol]-3′-yl)cyclopropanesulfonamide] | 700 nM
CC(C)COc1ncc(-n2c(C(F)(F)F)cc3cc4c(NS(C)(=O)=O)noc4cc32)cc1Cl [Example 40b, N-(7-(5-chloro-6-isobutoxypyridin-3-yl)-6-(trifluoromethyl)-7H-isoxazolo[4,5-f]indol-3-yl)methanesulfonamide] | 40 nM
CC(C)COc1ncc(-n2cc(C(F)(F)F)c3cc4c(NS(=O)(=O)C5CC5)noc4cc32)cc1Cl [Example 41, N-(7-(5-chloro-6-isobutoxypyridin-3-yl)-5-(trifluoromethyl)-7H-isoxazolo[4,5-f]indol-3-yl)cyclopropanesulfonamide] | 50 nM
Cc1cn(-c2cnc(OCC(C)C)c(Cl)c2)c2cc3onc(NS(=O)(=O)C4CC4)c3cc12 [Example 42, N-(7-(5-chloro-6-isobutoxypyridin-3-yl)-5-methyl-7H-isoxazolo[4,54]indol-3-yl)cyclopropanesulfonamide] | 70 nM
CC(C)COc1ncc(-n2c(C(F)(F)F)nc3cc4c(NS(=O)(=O)C5CC5)noc4cc32)cc1Cl [Example 43, N-(7-(5-chloro-6-isobutoxypyridin-3-yl)-6-(trifluoromethyl)-7H-imidazo[4′,5′:4,5]benzo[1,2-d]isoxazol-3-yl)cyclopropanesulfonamide] | 100 nM
Cc1nn(-c2cnc(OCC(C)C)c(Cl)c2)c2cc3onc(NS(C)(=O)=O)c3cc12 [Example 44, N-(7-(5-chloro-6-isobutoxypyridin-3-yl)-5-methyl-7H-isoxazolo[4,54]indazol-3-yl)methanesulfonamide] | 100 nM
Cc1nn(-c2cnc(OCC(C)C)c(Cl)c2)c2cc3onc(NS(=O)(=O)C4CC4)c3cc12 [Example 45, N-(7-(5-chloro-6-isobutoxypyridin-3-yl)-5-methyl-7H-isoxazolo[4,5-f]indazol-3-yl)cyclopropanesulfonamide] | 30 nM
Cc1nn(-c2ccc(Cl)c(Cl)c2)c2cc3onc(NS(=O)(=O)C4CC4)c3cc12 [Example 46, N-(7-(3,4-dichlorophenyl)-5-methyl-7H-isoxazolo[4,5-f]indazol-3-yl)cyclopropanesulfonamide] | 100 nM
CC(C)COc1ncc(-c2nn(C)c3cc4c(NS(=O)(=O)C5CC5)noc4cc23)cc1Cl [Example 47, N-(7-(5-chloro-6-isobutoxypyridin-3-yl)-5-methyl-5H-isoxazolo[5,4-f]indazol-3-yl)cyclopropanesulfonamide] | 400 nM
CC(C)COc1ncc(-n2cc(C#N)c3cc4c(NS(=O)(=O)C5CC5)noc4cc32)cc1Cl [Example 48, N-(7-(5-chloro-6-isobutoxypyridin-3-yl)-5-cyano-7H-isoxazolo[4,54]indol-3-yl)cyclopropanesulfonamide] | 220 nM
